Assay results reported in patent publication US11739120B2, “Water soluble salts of lipidated peptides and methods for preparing and using the same” (Bridge Biotherapeutics, Inc., priority 2018, dated 2023).
Values after ≈ are worked out from the molar mass of the structure shown. Residues, ends and D or L forms follow the SMILES beside them. *: point of attachment. Palmitoyl = CCCCCCCCCCCCCCCC(=O)*

How the values were obtained:
[1] = Solubility of amorphous, Form A and Form E of Compound I-1 in water (shaken at 25° C., HPLC); assay type: physicochemical; settings: for Final pH: mother liquor; for XRPD pattern (wet): residue of the suspension in water
Description: The solubility of amorphous, Form A or E of Compound I-1 in water was further studied. Specifically, about 250 mg Compound I-1 in amorphous, Forms A and E were each suspended in a 2 mL HPLC vial with 0.9 mL of water. Each suspension was then shaken at 25° C. under 1000 rpm. The suspensions were analyzed at 1 h and 24 h. In particular, at either the 1 h or 24 h time point, the slurries were centrifuged and analyzed by HPLC. The pH values of the mother liquors were measured, and the residues were characterized by XRPD.

[2] = Aqueous solubility of Compound I-1 in the presence of excipients; assay type: physicochemical; settings: 25° C.
Description: Specifically, about 50 mg of Compound I-1 was weighed into a 1.5-mL HPLC vial, and 0.2 mL of different media was then added to each vial. The mixtures were shaken at 25° C. under 700 rpm. After 24 hours of shaking, the slurries were centrifuged twice and analyzed. The supernatant was analyzed by HPLC.

[3] = Physical stability of Compound I-1 in meglumine solutions; assay type: physicochemical; settings: for Appearance: precipitation after (storage time) / Appearance: no precipitation until (storage time): vehicle Meglumine, 25° C.
Description: In contrast, an aqueous formulation with a concentration of Compound I-1 of 200 mg/mL, without meglumine, started forming precipitates after storing 1 day at 25° C.

[4] = Stabilities of amorphous Compound I-1 (ICH guideline, XRPD); assay type: physicochemical; settings: amorphous; 25±2° C./60±5% RH and 40±2° C./75±5% RH; ICH guideline
Description: Stabilities of amorphous Compound I-1 were also conducted according to ICH guideline.

[5] = tested on: DSS induced colitis animal model; test: DSS induced colitis animal model; assay type: in vivo; settings: formulations containing Compound I-1
Description: The compound of Formula I (e.g., Formula I-B or I-C, or any one of Compounds I-1 to I-10) described herein is useful for treating various diseases or disorders discussed herein. […] In addition, it was shown that effective concentration of the acid compounds can be retained in a targeted tissue (e.g., small intestinal tissues, large intestinal tissues, appendix tissues) for a sufficient time. […] Those skilled in the art would expect that the salts of Compound I-1-Acid, such as Compound I-1, be similarly efficacious.

[6] = Aqueous solubility of Compound I-1 in the presence of excipients; assay type: physicochemical; settings: approximate solubility by visual observation
[7] = Approximate solubility of Compound I-1-Acid in different solvents (manual dilution, visual observation); assay type: physicochemical
Description: The solubility test was conducted by manual dilution combined with visual observation. As shown below, Compound I-1-Acid has poor solubility (<1 mg/mL) in most organic solvents and water (Table 1).

[8] = Water solubility of Compound I-1-Acid (further investigation); assay type: physicochemical
[9] = tested on: inflammatory bowel diseases, multiple sclerosis, and septicemia; settings: shown in U.S. application Ser. No. 15/205,853; cited from earlier work
[10] = Approximate solubility of Compound I-2 (amorphous) at room temperature; assay type: physicochemical
Description: The solubility of Compound I-2 (amorphous) at room temperature was tested using a method similar to those described in Examples 4 and 5. The solubility test results are described in Table 6.

[11] = Kinetic solubility of potassium salt Compound I-2 (further research); assay type: physicochemical; settings: water; 25° C.
[12] = Hygroscopicity by Dynamic Vapor Sorption (DVS); assay type: physicochemical
Description: A polymorph screening study on Compound I-1-Acid was also carried out, which identified Form 1. […] About 0.25% weight loss from 25° C. to 120° C. and about 0.42% weight loss from 120° C. to 150° C.
Compound I-2 can have different crystalline forms. Two different polymorphs, Forms A2 and B2 were identified. Form A2 can be prepared as follows. Specifically, the white solid of Compound I-2 obtained above was dissolved in 30 mL THF:water (95:5, v/v). […] The suspension was then allowed to be stirred at room temperature overnight. After which, the solid was filtered, washed with THF:water:MTBE=7.5:1:53 (25 mL*3) to remove excess KOH, and then dried under vacuum at 25° C. overnight to provide Form A2.

[13] = Crystalline stability of Form A2 of Compound I-2 on storage; assay type: physicochemical; settings: 25° C./92.5% RH, 40° C./75% RH, 60° C.; 25 days
[14] = water, 25° C., time point 1 hour
[15] = water, 25° C., time point 24 hours

CCCCCCCCCCCCCCCC(=O)N1CCC[C@H]1C(=O)N1CCC[C@H]1C(=O)NCC(=O)N[C@@H](Cc1ccc(O)cc1)C(=O)[O-].[Na+] [Compound I-1, sodium palmitoyl-L-prolyl-L-prolylglycyl-L-tyrosinate] (Palmitoyl-PPGY-OH)
solubility kinetic ([1]; water, 25° C.): ~200 mg/mL
solubility at 24 h ([2]; water with Cremophor RH 40 1% (w/v), HPLC): 231 mg/mL
solubility at 24 h ([2]; water with Cremophor RH 40 10% (w/v), HPLC): 209 mg/mL
solubility at 24 h ([2]; water with Meglumine 1% (w/v), HPLC): 190 mg/mL
solubility at 24 h ([2]; water with Meglumine 10% (w/v)): > 270 mg/mL
solubility at 24 h ([2]; water with TWEEN 80 1% (w/v), HPLC): 215 mg/mL
solubility at 24 h ([2]; water with TWEEN 80 10% (w/v), HPLC): 198 mg/mL
physical stability of solution ([3]; 200 mg/mL in water with 3%, 4%, or 5% meglumine, stored at 25° C., 13 days): good physical stability
physical stability of solution ([3]; stored at 5° C., 5 mg/mL solution formulation with meglumine (2-5%)): not physically stable
Appearance: precipitation after (storage time) ([3]; 2%, 200 mg/mL): Precipitation after 2 days
Appearance: precipitation after (storage time) ([3]; 2%, 250 mg/mL): Precipitation after 1 day
Appearance: no precipitation until (storage time) ([3]; 3%, 200 mg/mL): ≥ 3 weeks
Appearance: no precipitation until (storage time) ([3]; 4%, 200 mg/mL): ≥ 3 weeks
Appearance: no precipitation until (storage time) ([3]; 5%, 200 mg/mL): ≥ 3 weeks
Appearance: precipitation after (storage time) ([3]; 5%, 250 mg/mL): Precipitation after 5 days
Appearance: precipitation after (storage time) ([3]; 5%, 300 mg/mL): Precipitation after 3 days
stable for (storage time) [4]: ≥ 6 months
total colitis scores [5]: statistically significant improvement
solubility ([6]; water with HPMC E3 5% (w/v)): < 250 mg/mL
solubility ([6]; water with HPβCD 5% (w/v)): < 250 mg/mL
solubility ([6]; water with Meglumine 2% (w/v)): > 250 mg/mL
solubility ([6]; water with Meglumine 5% (w/v)): > 250 mg/mL
solubility ([6]; water with Meglumine:Cremophor RH 40 (1:1, w/w) 10% (w/v)): > 250 mg/mL

CCCCCCCCCCCCCCCC(=O)N1CCC[C@H]1C(=O)N1CCC[C@H]1C(=O)NCC(=O)N[C@@H](Cc1ccc(O)cc1)C(=O)O [Compound I-1-Acid] (Palmitoyl-PPGY-OH)
solubility ([7]; 1,4-Dioxane, room temperature): < 1000 µg/mL
solubility ([7]; 1-butanol, room temperature): < 1000 µg/mL
solubility ([7]; 2-Methyl Tetrahydrofuran, room temperature): < 1000 µg/mL
solubility ([7]; ACN—H2O (1:1), room temperature): < 1000 µg/mL
solubility ([7]; Acetone-H2O (1:2), room temperature): < 1000 µg/mL
solubility ([7]; Acetone, room temperature): < 1000 µg/mL
solubility ([7]; Acetonitrile, room temperature): < 1000 µg/mL
solubility ([7]; Cyclohexane, room temperature): < 1000 µg/mL
solubility ([7]; EtOH—H2O (1:1), room temperature): < 1000 µg/mL
solubility ([7]; EtOH—H2O (3:1), room temperature): < 1000 µg/mL
solubility ([7]; Ethanol, room temperature): < 1000 µg/mL
solubility ([7]; Ethyl acetate, room temperature): < 1000 µg/mL
solubility ([7]; Heptane, room temperature): < 1000 µg/mL
solubility ([7]; Isopropyl acetate, room temperature): < 1000 µg/mL
solubility ([7]; Isopropyl alcohol, room temperature): < 1000 µg/mL
solubility ([7]; MeOH—H2O (1:1), room temperature): < 1000 µg/mL
solubility ([7]; MeOH—H2O (3:1), room temperature): < 1000 µg/mL
solubility ([7]; Methyl ethyl ketone, room temperature): < 1000 µg/mL
solubility ([7]; Methyl isobutyl ketone, room temperature): < 1000 µg/mL
solubility ([7]; Methyl t-butyl ether, room temperature): < 1000 µg/mL
solubility ([7]; N-methyl pyrrolidone, room temperature): 1000 to 5000 µg/mL (≈ 1490 to 7450 µM)
solubility ([7]; Tetrahydrofuran, room temperature): < 1000 µg/mL
solubility ([7]; Toluene, room temperature): < 1000 µg/mL
solubility ([7]; Water, room temperature): < 1000 µg/mL
solubility ([7]; most organic solvents and water, ambient laboratory temperature): < 1000 µg/mL
solubility [8]: < 2 µg/mL
treating inflammatory bowel diseases, multiple sclerosis, and septicemia [9]: effective

CCCCCCCCCCCCCCCC(=O)N1CCC[C@H]1C(=O)N1CCC[C@H]1C(=O)NCC(=O)N[C@@H](Cc1ccc(O)cc1)C(=O)[O-].[K+] [Compound I-2 (amorphous)] (Palmitoyl-PPGY-OH)
solubility ([10]; 1,4-Dioxane): < 1000 µg/mL
solubility ([10]; 1-butanol): 1000 to 5000 µg/mL
solubility ([10]; 2-Methyl Tetrahydrofuran): < 1000 µg/mL
solubility ([10]; Acetone): < 1000 µg/mL
solubility ([10]; Acetone: H2O (97:3)): < 1000 µg/mL
solubility ([10]; Acetonitrile): < 1000 µg/mL
solubility ([10]; Acetonitrile:H2O (95:5)): < 1000 µg/mL
solubility ([10]; Cyclohexane): < 1000 µg/mL
solubility ([10]; DMF): 50000 to 100000 µg/mL
solubility ([10]; DMSO): 50000 to 100000 µg/mL
solubility ([10]; Ethanol): 50000 to 100000 µg/mL
solubility ([10]; Ethanol:H2O (90:10)): 25000 to 50000 µg/mL
solubility ([10]; Ethanol:H2O (95:5)): 25000 to 50000 µg/mL
solubility ([10]; Ethyl acetate): < 1000 µg/mL
solubility ([10]; Heptane): < 1000 µg/mL
solubility ([10]; Isopropyl acetate): < 1000 µg/mL
solubility ([10]; Isopropyl alcohol): 1000 to 5000 µg/mL
solubility ([10]; Methanol): > 100000 µg/mL
solubility ([10]; Methanol:H2O (90:10)): > 100000 µg/mL
solubility ([10]; Methanol:H2O (95:5)): > 100000 µg/mL
solubility ([10]; Methyl ethyl ketone): < 1000 µg/mL
solubility ([10]; Methyl isobutyl ketone): < 1000 µg/mL
solubility ([10]; Methyl t-butyl ether): < 1000 µg/mL
solubility ([10]; N-methyl pyrrolidone): 50000 to 100000 µg/mL
solubility ([10]; Tetrahydrofuran): < 1000 µg/mL
solubility ([10]; Tetrahydrofuran:H2O (95:5)): 50000 to 100000 µg/mL
solubility ([10]; Toluene): < 1000 µg/mL
solubility ([10]; Water): > 100000 µg/mL

CCCCCCCCCCCCCCCC(=O)N1CCC[C@H]1C(=O)N1CCC[C@H]1C(=O)NCC(=O)N[C@@H](Cc1ccc(O)cc1)C(=O)[O-].[K+] [Compound I-2] (Palmitoyl-PPGY-OH)
solubility kinetic [11]: 166 to 200 mg/mL

CCCCCCCCCCCCCCCC(=O)N1CCC[C@H]1C(=O)N1CCC[C@H]1C(=O)NCC(=O)N[C@@H](Cc1ccc(O)cc1)C(=O)[O-].[K+] [Form A2] (Palmitoyl-PPGY-OH)
hygroscopicity (DVS) [12]: hygroscopic
water absorption (DVS isotherm) [12]: about 8%
crystalline stability on storage [13]: stable

CCCCCCCCCCCCCCCC(=O)N1CCC[C@H]1C(=O)N1CCC[C@H]1C(=O)NCC(=O)N[C@@H](Cc1ccc(O)cc1)C(=O)[O-].[Na+] [Form A] (Palmitoyl-PPGY-OH)
Final pH [1, 14]: 8.91
Final pH [1, 15]: 8.70
XRPD pattern (wet) ([1]; 25° C., time point 1 hour): A + D
Solubility at 25° C. ([1]; water, time point 24 hours): 208.6 mg/mL

CCCCCCCCCCCCCCCC(=O)N1CCC[C@H]1C(=O)N1CCC[C@H]1C(=O)NCC(=O)N[C@@H](Cc1ccc(O)cc1)C(=O)[O-].[Na+] [Form E] (Palmitoyl-PPGY-OH)
Final pH [1, 14]: 9.08
Final pH [1, 15]: 8.70
XRPD pattern (wet) ([1]; 25° C., time point 1 hour): A + D
Solubility at 25° C. ([1]; water, time point 24 hours): 199.4 mg/mL
